In patent publication US20250223268A1, “4-Methylsulfonylbenzamide Compound, Preparation Method, Herbicidal Composition And Use” (Jiangsu Flag Chemical Industry Co., Ltd., priority 2022, published 2025):

Columns and labels:
Assay in all cases: Greenhouse herbicidal activity assay, post-emergence
Assay type in all cases: in vivo
Details in all cases: Post-emergence test, rate 150 g a.i./hm^2, grade by fresh weight inhibition rate
[1] = tested on: Cyperus iria
Summary of the method: (§1)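 Weeds were sown in nutrient soil in 7 cm pots and grown in a growth chamber to the 3-6 leaf stage, then foliar-sprayed, air-dried and returned to the chamber. Fresh weight inhibition was scored 14-21 days later in bands from A (≥80% to 100%) to E (<20%).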

[2] = tested on: Digitaria sanguinalis
Summary of the method: as §1

[3] = tested on: Eclipta prostrata
Summary of the method: as §1

[4] = tested on: Echinochloa crusgalli
Summary of the method: as §1

[5] = tested on: Leptochloa chinensis
Summary of the method: as §1

Row | Compound | Control efficacy grade, Cyperus iria [1] | Control efficacy grade, Digitaria sanguinalis [2] | Control efficacy grade, Eclipta prostrata [3] | Control efficacy grade, Echinochloa crusgalli [4] | Control efficacy grade, Leptochloa chinensis [5] | pest or weed control at 150 g/ha ([1]; Cyperus iria, read-out: Control efficacy grade, Cyperus iria) | pest or weed control at 150 g/ha ([2]; Digitaria sanguinalis, read-out: Control efficacy grade, Digitaria sanguinalis) | pest or weed control at 150 g/ha ([3]; Eclipta prostrata, read-out: Control efficacy grade, Eclipta prostrata) | pest or weed control at 150 g/ha ([4]; Echinochloa crus-galli, read-out: Control efficacy grade, Echinochloa crusgalli) | pest or weed control at 150 g/ha ([5]; Dinebra chinensis, read-out: Control efficacy grade, Leptochloa chinensis)
1 | CC(C)c1nnc(NC(=O)c2ccc(S(C)(=O)=O)c([S+]([O-])C3CC3)c2Cl)o1 (racemic) [Compound 3-536] | A (Fresh weight inhibition rate≥80% to 100%) | B (Fresh weight inhibition rate≥260% to <80%) | A (Fresh weight inhibition rate≥80% to 100%) | A (Fresh weight inhibition rate≥80% to 100%) | A (Fresh weight inhibition rate≥80% to 100%) | – | – | – | – | –
2 | Cn1ncnc1NC(=O)c1ccc(S(C)(=O)=O)c([S+]([O-])CC2CC2)c1Cl (single isomer, unassigned) [Compound 2-29] | A (Fresh weight inhibition rate≥80% to 100%) | A (Fresh weight inhibition rate≥80% to 100%) | A (Fresh weight inhibition rate≥80% to 100%) | A (Fresh weight inhibition rate≥80% to 100%) | A (Fresh weight inhibition rate≥80% to 100%) | – | – | – | – | –
3 | Cn1ncnc1NC(=O)c1ccc(S(C)(=O)=O)c([S+]([O-])C2CCCCC2)c1Cl (racemic) [Compound 2-48] | A (Fresh weight inhibition rate≥80% to 100%) | A (Fresh weight inhibition rate≥80% to 100%) | A (Fresh weight inhibition rate≥80% to 100%) | A (Fresh weight inhibition rate≥80% to 100%) | A (Fresh weight inhibition rate≥80% to 100%) | – | – | – | – | –
4 | CS(=O)(=O)c1ccc(C(=O)Nc2nnco2)c(Cl)c1[S+]([O-])C1CCCCC1 (racemic) [Compound 3-319] | A (Fresh weight inhibition rate≥80% to 100%) | A (Fresh weight inhibition rate≥80% to 100%) | A (Fresh weight inhibition rate≥80% to 100%) | A (Fresh weight inhibition rate≥80% to 100%) | A (Fresh weight inhibition rate≥80% to 100%) | – | – | – | – | –
5 | Cc1nonc1NC(=O)c1ccc(S(C)(=O)=O)c([S+]([O-])CC2CC2)c1Cl (stereo not drawn) [Compound 4-33, 2-chloro-3-((cyclopropylmethyl)sulfinyl)-N-(4-methyl-1,2,5-oxadiazol-3-yl)-4-(methylsulfonyl)benzamide] | – | – | – | – | – | 80 to 100% | 80 to 100% | 80 to 100% | 80 to 100% | 80 to 100%
6 | CCc1nnc(NC(=O)c2ccc(S(C)(=O)=O)c([S+]([O-])CC(C)C)c2Cl)o1 (racemic) [Compound 3-410] | A (Fresh weight inhibition rate≥80% to 100%) | A (Fresh weight inhibition rate≥80% to 100%) | A (Fresh weight inhibition rate≥80% to 100%) | C (Fresh weight inhibition rate≥40% to <60%) | A (Fresh weight inhibition rate≥80% to 100%) | – | – | – | – | –
7 | Cc1nnc(NC(=O)c2ccc(S(C)(=O)=O)c([S+]([O-])CCC(C)C)c2Cl)o1 (racemic) [Compound 3-53] | A (Fresh weight inhibition rate≥80% to 100%) | A (Fresh weight inhibition rate≥80% to 100%) | A (Fresh weight inhibition rate≥80% to 100%) | B (Fresh weight inhibition rate≥260% to <80%) | A (Fresh weight inhibition rate≥80% to 100%) | – | – | – | – | –
8 | CS(=O)(=O)c1ccc(C(=O)Nc2nnco2)c(Cl)c1[S+]([O-])CC(F)(F)F (racemic) [Compound 3-324] | A (Fresh weight inhibition rate≥80% to 100%) | A (Fresh weight inhibition rate≥80% to 100%) | A (Fresh weight inhibition rate≥80% to 100%) | A (Fresh weight inhibition rate≥80% to 100%) | A (Fresh weight inhibition rate≥80% to 100%) | – | – | – | – | –
9 | Cn1nnnc1NC(=O)c1ccc(S(C)(=O)=O)c([S+]([O-])C2CCCCC2)c1Cl (racemic) [Compound 1-48] | A (Fresh weight inhibition rate≥80% to 100%) | A (Fresh weight inhibition rate≥80% to 100%) | A (Fresh weight inhibition rate≥80% to 100%) | A (Fresh weight inhibition rate≥80% to 100%) | A (Fresh weight inhibition rate≥80% to 100%) | – | – | – | – | –
10 | Cc1nnc(NC(=O)c2ccc(S(C)(=O)=O)c(SC3CCC3)c2Cl)o1 [Compound 3-82] | A (Fresh weight inhibition rate≥80% to 100%) | A (Fresh weight inhibition rate≥80% to 100%) | A (Fresh weight inhibition rate≥80% to 100%) | A (Fresh weight inhibition rate≥80% to 100%) | A (Fresh weight inhibition rate≥80% to 100%) | – | – | – | – | –
11 | Cn1nnnc1NC(=O)c1ccc(S(C)(=O)=O)c([S+]([O-])CC(F)F)c1Cl (racemic) [Compound 1-58] | B (Fresh weight inhibition rate≥260% to <80%) | A (Fresh weight inhibition rate≥80% to 100%) | A (Fresh weight inhibition rate≥80% to 100%) | A (Fresh weight inhibition rate≥80% to 100%) | A (Fresh weight inhibition rate≥80% to 100%) | – | – | – | – | –
12 | Cn1nnnc1NC(=O)c1ccc(S(C)(=O)=O)c([S+]([O-])C2CC2)c1Cl (racemic) [Compound 1-33] | A (Fresh weight inhibition rate≥80% to 100%) | A (Fresh weight inhibition rate≥80% to 100%) | A (Fresh weight inhibition rate≥80% to 100%) | A (Fresh weight inhibition rate≥80% to 100%) | A (Fresh weight inhibition rate≥80% to 100%) | – | – | – | – | –
13 | Cc1nnc(NC(=O)c2ccc(S(C)(=O)=O)c([S+]([O-])C3CC3)c2Cl)o1 (racemic) [Compound 3-78] | A (Fresh weight inhibition rate≥80% to 100%) | A (Fresh weight inhibition rate≥80% to 100%) | A (Fresh weight inhibition rate≥80% to 100%) | A (Fresh weight inhibition rate≥80% to 100%) | A (Fresh weight inhibition rate≥80% to 100%) | – | – | – | – | –
14 | CC(C)[S+]([O-])c1c(S(C)(=O)=O)ccc(C(=O)Nc2ncnn2C)c1Cl (single isomer, unassigned) [Compound 2-9] | A (Fresh weight inhibition rate≥80% to 100%) | A (Fresh weight inhibition rate≥80% to 100%) | A (Fresh weight inhibition rate≥80% to 100%) | A (Fresh weight inhibition rate≥80% to 100%) | A (Fresh weight inhibition rate≥80% to 100%) | – | – | – | – | –
15 | CCC(C)[S+]([O-])c1c(S(C)(=O)=O)ccc(C(=O)Nc2ncnn2C)c1Cl (mixture of isomers) [Compound 2-19] | A (Fresh weight inhibition rate≥80% to 100%) | A (Fresh weight inhibition rate≥80% to 100%) | A (Fresh weight inhibition rate≥80% to 100%) | A (Fresh weight inhibition rate≥80% to 100%) | A (Fresh weight inhibition rate≥80% to 100%) | – | – | – | – | –
16 | C=C(C)CSc1c(S(C)(=O)=O)ccc(C(=O)Nc2nnc(C)o2)c1Cl [Compound 3-142] | A (Fresh weight inhibition rate≥80% to 100%) | A (Fresh weight inhibition rate≥80% to 100%) | A (Fresh weight inhibition rate≥80% to 100%) | A (Fresh weight inhibition rate≥80% to 100%) | A (Fresh weight inhibition rate≥80% to 100%) | – | – | – | – | –
17 | CS(=O)(=O)c1ccc(C(=O)Nc2nnco2)c(Cl)c1SC1CCCC1 [Compound 3-313] | A (Fresh weight inhibition rate≥80% to 100%) | A (Fresh weight inhibition rate≥80% to 100%) | A (Fresh weight inhibition rate≥80% to 100%) | A (Fresh weight inhibition rate≥80% to 100%) | A (Fresh weight inhibition rate≥80% to 100%) | – | – | – | – | –
18 | CCc1nnc(NC(=O)c2ccc(S(C)(=O)=O)c([S+]([O-])C3CC3)c2Cl)o1 (racemic) [Compound 3-420] | A (Fresh weight inhibition rate≥80% to 100%) | A (Fresh weight inhibition rate≥80% to 100%) | A (Fresh weight inhibition rate≥80% to 100%) | A (Fresh weight inhibition rate≥80% to 100%) | A (Fresh weight inhibition rate≥80% to 100%) | – | – | – | – | –
